Data reported in patent publication US9637491B2, “Pyrazolo[4,3-D]pyrimidines as kinase inhibitors” (Origenis GmbH, priority 2012, dated 2017).

Target: T1, SYK kinase (Homo sapiens, UniProt P43405)
T1 construct: purchased Invitrogen, Carlsbad
Assay: SYK assay (OMNIA Kinase Assay, Invitrogen)
Assay type: biochemical
Conditions: SYK Activities; 1 mM ATP, 10 μM Omnia Peptide Substrate Tyr 7, 30° C.
Method in brief: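 Continuous-read fluorescence kinase assay: SOX-labelled Tyr 7 peptide (10 μM) with 1 mM ATP and 0.2 mM DTT, 30° C, reaction started by adding SYK. Fluorescence (ex 360/em 485 nm) read every 30 s for 30 min. IC50 from sigmoidal fit of reaction velocity versus inhibitor concentration.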

Compound | IC50
c1nn(C2CCOCC2)cc1Nc1nc(C2C3CCCCC32)nc2cn[nH]c12 (stereo not drawn) [Example 473, 5-(bicyclo[4.1.0]heptan-7-yl)-N-(1-(tetrahydro-2H-pyran-4-yl)-1H-pyrazol-4-yl)-1H-pyrazolo[4,3-d]pyrimidin-7-amine] | 100 to 1000 nM
c1nn(C2CCNC2)cc1Nc1nc(C2C3CCCCC32)nc2cn[nH]c12 (stereo not drawn) [Example 474, 5-(bicyclo[4.1.0]heptan-7-yl)-N-(1-(pyrrolidin-3-yl)-1H-pyrazol-4-yl)-1H-pyrazolo[4,3-d]pyrimidin-7-amine] | 100 to 1000 nM
COc1cc(Nc2nc(C3C4CCCCC43)nc3cn[nH]c23)ccc1N1CCOCC1 (stereo not drawn) [Example 475, 5-(bicyclo[4.1.0]heptan-7-yl)-N-(3-methoxy-4-morpholinophenyl)-1H-pyrazolo[4,3-d]pyrimidin-7-amine] | 100 to 1000 nM
OCCn1cc(Nc2nc(-c3ccc4cn[nH]c4c3)nc3cn[nH]c23)cn1 [Example 476, 2-(4-((5-(1H-indazol-6-yl)-1H-pyrazolo[4,3-d]pyrimidin-7-yl)amino)-1H-pyrazol-1-yl)ethan-1-ol] | 10 to 100 nM
CC(c1ccccc1)n1cc(Nc2nc(-c3ccc4cn[nH]c4c3)nc3cn[nH]c23)cn1 (stereo not drawn) [Example 477, 5-(1H-indazol-6-yl)-N-(1-(1-phenylethyl)-1H-pyrazol-4-yl)-1H-pyrazolo[4,3-d]pyrimidin-7-amine] | 100 to 1000 nM
COc1cc(Nc2nc(-c3c(C)cccc3F)nc3cn[nH]c23)ccc1N1CCOCC1 [Example 481, 5-(2-fluoro-6-methylphenyl)-N-(3-methoxy-4-morpholinophenyl)-1H-pyrazolo[4,3-d]pyrimidin-7-amine] | 100 to 1000 nM
CC(C)C(C)n1cc(Nc2nc(-c3ccoc3)nc3cn[nH]c23)cn1 (stereo not drawn) [Example 482, 5-(furan-3-yl)-N-(1-(3-methylbutan-2-yl)-1H-pyrazol-4-yl)-1H-pyrazolo[4,3-d]pyrimidin-7-amine] | 10 to 100 nM
c1cc(-c2nc(Nc3cnn(C4CCCOC4)c3)c3[nH]ncc3n2)co1 (stereo not drawn) [Example 483, 5-(furan-3-yl)-N-(1-(tetrahydro-2H-pyran-3-yl)-1H-pyrazol-4-yl)-1H-pyrazolo[4,3-d]pyrimidin-7-amine] | 10 to 100 nM
c1ccc(-n2cc(Nc3nc(-c4ccoc4)nc4cn[nH]c34)cn2)nc1 [Example 484, 5-(furan-3-yl)-N-(1-(pyridin-2-yl)-1H-pyrazol-4-yl)-1H-pyrazolo[4,3-d]pyrimidin-7-amine] | 100 to 1000 nM
CCN1C(=O)COc2ccc(Nc3nc(-c4ccoc4)nc4cn[nH]c34)cc21 [Example 485, 4-ethyl-6-((5-(furan-3-yl)-1H-pyrazolo[4,3-d]pyrimidin-7-yl)amino)-2H-benzo[b][1,4]oxazin-3(4H)-one] | 100 to 1000 nM
CC(C(=O)O)n1cc(Nc2nc(-c3ccoc3)nc3cn[nH]c23)cn1 (stereo not drawn) [Example 486, 2-(4-((5-(furan-3-yl)-1H-pyrazolo[4,3-d]pyrimidin-7-yl)amino)-1H-pyrazol-1-yl)propanoic acid] | 100 to 1000 nM
CC(c1ccccc1)n1cc(Nc2nc(-c3ccoc3)nc3cn[nH]c23)cn1 (stereo not drawn) [Example 487, 5-(furan-3-yl)-N-(1-(1-phenylethyl)-1H-pyrazol-4-yl)-1H-pyrazolo[4,3-d]pyrimidin-7-amine] | 100 to 1000 nM
CN1C(=O)COc2ccc(Nc3nc(-c4ccoc4)nc4cn[nH]c34)cc21 [Example 488, 6-((5-(furan-3-yl)-1H-pyrazolo[4,3-d]pyrimidin-7-yl)amino)-4-methyl-2H-benzo[b][1,4]oxazin-3(4H)-one] | 10 to 100 nM
CC(C(=O)O)n1cc(Nc2nc(-c3ccc4cn[nH]c4c3)nc3cn[nH]c23)cn1 (stereo not drawn) [Example 493, 2-(4-((5-(1H-indazol-6-yl)-1H-pyrazolo[4,3-d]pyrimidin-7-yl)amino)-1H-pyrazol-1-yl)propanoic acid] | 100 to 1000 nM
CC(C)(C)N1CCC(n2cc(Nc3nc(-c4nc5c(s4)CCCC5)nc4cn[nH]c34)cn2)CC1 [Example 495, N-(1-(1-(tert-butyl)piperidin-4-yl)-1H-pyrazol-4-yl)-5-(4,5,6,7-tetrahydrobenzo[d]thiazol-2-yl)-1H-pyrazolo[4,3-d]pyrimidin-7-amine] | 10 to 100 nM
c1nn(C2CCOCC2)cc1Nc1nc(-c2nc3c(s2)CCCC3)nc2cn[nH]c12 [Example 496, N-(1-(tetrahydro-2H-pyran-4-yl)-1H-pyrazol-4-yl)-5-(4,5,6,7-tetrahydrobenzo[d]thiazol-2-yl)-1H-pyrazolo[4,3-d]pyrimidin-7-amine] | 10 to 100 nM
CN1C(=O)COc2ccc(Nc3nc(C4CC4)nc4cn[nH]c34)cc21 [Example 497, 6-((5-cyclopropyl-1H-pyrazolo[4,3-d]pyrimidin-7-yl)amino)-4-methyl-2H-benzo[b][1,4]oxazin-3(4H)-one] | 100 to 1000 nM
CC(C)C(C)n1cc(Nc2nc(C3CC3)nc3cn[nH]c23)cn1 (stereo not drawn) [Example 498, 5-cyclopropyl-N-(1-(3-methylbutan-2-yl)-1H-pyrazol-4-yl)-1H-pyrazolo[4,3-d]pyrimidin-7-amine] | 10 to 100 nM
CN1CCN(C(=O)c2ccc(Nc3nc(-c4c(F)cccc4F)nc4cn[nH]c34)cc2)CC1 [Example 500, (4-((5-(2,6-difluorophenyl)-1H-pyrazolo[4,3-d]pyrimidin-7-yl)amino)phenyl)(4-methylpiperazin-1-yl)methanone] | 100 to 1000 nM
OCCN1CCN(c2ccc(Nc3nc(-c4c(F)cccc4F)nc4cn[nH]c34)cc2)CC1 [Example 501, 2-(4-(4-((5-(2,6-difluorophenyl)-1H-pyrazolo[4,3-d]pyrimidin-7-yl)amino)phenyl)piperazin-1-yl)ethan-1-ol] | 10 to 100 nM
N#Cc1cc(Nc2nc(-c3c(F)cccc3F)nc3cn[nH]c23)ccc1N1CCOCC1 [Example 502, 5-((5-(2,6-difluorophenyl)-1H-pyrazolo[4,3-d]pyrimidin-7-yl)amino)-2-morpholinobenzonitrile] | 10 to 100 nM
O=C(C1CC1)N1CCCc2ccc(Nc3nc(C4CC4)nc4cn[nH]c34)cc21 [Example 503, cyclopropyl(7-((5-cyclopropyl-1H-pyrazolo[4,3-d]pyrimidin-7-yl)amino)-3,4-dihydroquinolin-1(2H)-yl)methanone] | 100 to 1000 nM
CC(C(=O)O)n1cc(Nc2nc(C3CC3)nc3cn[nH]c23)cn1 (stereo not drawn) [Example 504, 2-(4-((5-cyclopropyl-1H-pyrazolo[4,3-d]pyrimidin-7-yl)amino)-1H-pyrazol-1-yl)propanoic acid] | 100 to 1000 nM
c1nn(C2CCCOC2)cc1Nc1nc(-c2ccc3cn[nH]c3c2)nc2cn[nH]c12 (stereo not drawn) [Example 505, 5-(1H-indazol-6-yl)-N-(1-(tetrahydro-2H-pyran-3-yl)-1H-pyrazol-4-yl)-1H-pyrazolo[4,3-d]pyrimidin-7-amine] | 10 to 100 nM
Oc1ccccc1Nc1nc(-c2ccc3cn[nH]c3c2)nc2cn[nH]c12 [Example 506, 2-((5-(1H-indazol-6-yl)-1H-pyrazolo[4,3-d]pyrimidin-7-yl)amino)phenol] | 100 to 1000 nM
COc1cc(Nc2nc([C@H]3C[C@@H]3c3ccccc3)nc3cn[nH]c23)ccc1N1CCOCC1 [Example 508, N-(3-methoxy-4-morpholinophenyl)-5-((1S,2S)-2-phenylcyclopropyl)-1H-pyrazolo[4,3-d]pyrimidin-7-amine] | 100 to 1000 nM
COc1ccc(Nc2nc(-c3cnn(C(C)C(C)C)c3)nc3cn[nH]c23)cc1OC (stereo not drawn) [Example 511, N-(3,4-dimethoxyphenyl)-5-(1-(3-methylbutan-2-yl)-1H-pyrazol-4-yl)-1H-pyrazolo[4,3-d]pyrimidin-7-amine] | 100 to 1000 nM
